Experimental data reported in US5618726A, “Biodegradable azo dyes” (priority 1994, dated 1997).

Tests used:
[1] = test system: lignin peroxidase (ligninase, LiP); experiment: Oxidation of azo dyes and veratryl alcohol by pure lignin peroxidase; type: biochemical, Phanerochaete chrysosporium; conditions: for Oxidation by ligninase after VA was added: with veratryl alcohol; for Oxidation by ligninase without VA: without veratryl alcohol
Procedure: Lignin peroxidase activity was determined spectrophotometrically at room temperature with VA as substrate. One unit (U) of enzyme activity was defined as 1 μmole of veratryl aldehyde formed-per-min at pH 3. Simultaneous oxidations of azo dyes and veratryl alcohol were measured using a Hewlett-Packard 8452 diode array spectrophotometer operated in the kinetic mode by a Vectra PC equipped with MS™-DO/UV-VIS software. Azo dye concentrations were determined by measuring absorbances at appropriate maxima.
After six days of growth, when the specific activity of ligninase reached about 250 U-per-liter, culture filtrates were separated from mycelial debris by filtration. One liter of culture filtrate was concentrated to about 10 ml using an Amicon PM-10 membrane and desalted in 10 mM sodium acetate buffer (pH 6) using a Sephadex G25 NAP10 column. Ligninase isoenzyme was separated from Mn-dependent peroxidases using a Pharmacia fast protein liquid chromatography system equipped with a Mono Q HR 5/5 column. In this study isoforms H2 and H8 were used.
In vitro studies were limited to dyes 24 and 28. […] FIGS. 6A and 7A show the simultaneous oxidation of azo dyes 24 and 28, respectively, and VA by ligninase. Without VA, azo dye oxidation was limited and terminated more rapidly than in the presence of VA (FIGS. 6B and 7B). When a dye was present in a reaction mixture, the rate of VA oxidation decreased due to an apparent competition for LiPI between these two compounds. The oxidation rate of VA recovered when the azo dye oxidation was completed (FIG. 8). The maximal rate of VA oxidation was about 159 AU (absorption change per-min-per-ml of ligninase solution). Wavelengths of 310 nm for VA, 506 nm for dye 24, and 430 nm for dye 28 oxidations were used in monitoring substrate removal. The oxidation of azo dyes is stimulated by VA in high (200 μM) and low (20 μM) H2 O2 concentrations.

[2] = target: T1, horseradish peroxidase type II (Armoracia rusticana, UniProt P00433); experiment: Oxidation of azo dyes by horseradish peroxidase preparation; type: biochemical; conditions: pH 8, 37° C., H2O2
T1 sequence (P00433 31-338): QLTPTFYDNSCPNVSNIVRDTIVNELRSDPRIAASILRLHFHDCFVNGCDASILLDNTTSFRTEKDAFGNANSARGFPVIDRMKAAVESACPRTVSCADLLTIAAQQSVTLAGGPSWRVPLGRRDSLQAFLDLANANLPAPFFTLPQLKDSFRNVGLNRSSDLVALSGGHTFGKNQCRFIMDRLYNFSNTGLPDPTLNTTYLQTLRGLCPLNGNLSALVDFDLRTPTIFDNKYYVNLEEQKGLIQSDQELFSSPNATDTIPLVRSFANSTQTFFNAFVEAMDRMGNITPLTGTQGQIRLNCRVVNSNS
Procedure: The reaction was started with the addition of 100 μl of 50 mM H2 O2 and was followed for 1 min at 37° C. Controls were run with no addition of H2 O2 or with the addition of the hemeperoxidase inhibitor KCN (final concentration 25 μM).

[3] = test system: S. chromofuscus A11 extracellular peroxidase; experiment: Oxidation of azo dyes by S. chromofuscus A11 crude enzyme preparation; type: biochemical, Streptomyces chromofuscus A11; conditions: pH 8, 37° C., H2O2
In short: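 Enzyme from 48 h S. chromofuscus A11 culture supernatant, concentrated, ammonium sulfate-precipitated, dialyzed in 20 mM HEPES pH 8; yellow Sephadex G-25 fraction used. Reaction started with 100 μl 50 mM H2O2, followed 1 min at 37° C; controls without H2O2 or with 25 μM KCN.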

Mn(II)-peroxidase = experiment: Oxidation of dyes by P. chrysosporium Mn(II)-peroxidase; type: biochemical, Phanerochaete chrysosporium; conditions: crude enzyme, conditions specific for Mn(II)-peroxidase
ligninase = experiment: Oxidation of dyes by P. chrysosporium ligninase (crude preparation); type: biochemical, Phanerochaete chrysosporium; conditions: crude enzyme, conditions specific for ligninase
In short: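 Crude P. chrysosporium ligninase oxidation of dyes, assayed by a previously reported method; conditions as for acid yellow 9, readings every 30 s for up to 15 minutes.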

S. chromofuscus A11 = conditions: streptomyces chromofuscus a11 culture, 336 h
Procedure: (§1) Microbiol., 1984, 130:2905-2913.
(§2) Replicate sterile controls also were run in each experiment.
The Streptomyces were grown on the same media and under the same conditions as previously described. […] Thus, the spectrophotometric assays for substrates 1-12 were carried out at their specific isobastic points. Degradation was calculated as percent of substrates removed from culture broth, considering the evaporation factor (around 10%).

S. diastaticus A13 = type: cell-based; conditions: streptomyces diastaticus a13 culture, 336 h
Text: as §1, §2

S. diastaticus A12 = type: cell-based; conditions: streptomyces diastaticus a12 culture, 336 h
Text: as §1, §2

S. rochei A10 = type: cell-based; conditions: streptomyces rochei a10 culture, 336 h
Text: as §1, §2

[4] = test system: Phanerochaete chrysosporium; experiment: Substrate removal / decolorization by P. chrysosporium culture; type: cell-based; conditions: for % Decolorization, P. chrysosporium: 14 days
Procedure: Environ. Microbiol., 1981, 42:290-296), with the addition of 75 mg adenine (6-aminopurine) and 27 mg L-phenylalanine-per-liter. This addition accelerated the growth of the fungus without inhibiting ligninase activity. […] […] Cultures were incubated at 37° C. for 7 to 15 days with shaking (250 rpm). Solid agar media were also employed.

[5] = test system: P. chrysosporium ligninolytic culture; type: cell-based, Phanerochaete chrysosporium; conditions: ten days of growth; for Dye remaining in the cultures, HPLC / Dye remaining in the cultures, Spectrophotometry: initial 200 mg-per-liter; for Bleaching of cultures: 200 mg-per-liter
Procedure: Decolorization of dyes in cultures were monitored at their absorption maxima at pH 4.5, or using HPLC. A Spherisorb ODS2 C18 column was used for HPLC analysis with a sequence of DMS buffer at pH 4.5 and acetonitrile as solvents (5 min 100% DMS, 15 min 100% acetonitrile, 18 min 100% acetonitrile, 19 min 100% DMS, 20 min 100% DMS, 5 min postran 100% DMS). Peaks were monitored at 260 and 450 nm. Results from spectrophotometric and HPLC methods were compared.
The initial concentration of dye was 200 mg-per-liter. Numbers represent mg-per-liter of dye remaining in the cultures.

soil microflora = experiment: Degradation of azo dyes by soil microflora; type: cell-based; conditions: water from a soil sample; for Dye mineralized by soil microflora: 14CO2 trapped; for Dye transformed by soil microflora: carbon source, air flow
Procedure: The degradation of azo dyes by soil microflora in general was evaluated by forming a mixture of azo dyes 33 and 34 with water from a soil sample. The soil sample contained soil microflora that had not adapted to using azo dyes as substrates. A carbon source was added to the mixture and a continuous air flow through the mixture was maintained. The ^14 CO2 released by the mixture was trapped using a 1N NaOH.

[6] = test system: Streptomyces chromofuscus; experiment: Mineralization of 14C-labeled dyes by shaken cultures; type: cell-based
Procedure: (§3) Agitated cultures containing 100,000 to 150,000 dpm of azo dye at a concentration of 200 mg/liter for P. chrysosporium and 50 mg/liter for S. chromofuscus were incubated at 37° C. for 20 days with shaking at 200 rpm. For each mineralization experiment six replicates-per-culture were run for P. chrysosporium and three replicates-per-culture for S. chromofuscus. Each culture flask contained a CO2 trap consisting of a small glass cup connected to the bottom of the rubber stopper. The cup contained 1 ml of 1N NaOH. Samples were taken every 2 days, and after each sampling cultures were flushed with 100% oxygen for 30 s. At the sampling time, the stopper was removed and the NaOH containing trapped CO2 was transferred to a 20-ml scintillation vial, and the cup was then rinsed twice with 1 ml of water. Two ml of rinse water were also transferred to the vial. Finally, 10 ml of Ecolite scintillation cocktail (ICN Biochemicals Inc., Irvine, Calif.) were added to each vial. Vials, after mixing, were stored in the dark for 24 h. The cpm of trapped radioactivity was then determined in a Packard Tri-Carb liquid scintillation analyzer, Model 1500, using the ^14 C quench standards and SIS numbers.
(§4) The removal of radioactivity from the media was determined by measuring the amount of ^14 C label in 0.1 ml of the medium at time 0 and 21 days for each culture. Uninoculated cultures were used as evaporation controls. […] At the end of each mineralization experiment, culture broths were acidified with 5 ml of 1M H3 PO4, fresh 1N NaOH was added to the trap, and the cultures were shaken overnight. No additional releases of ^14 CO2 were observed. The radioactivity assimilated by the cells was measured by solubilizing biomass harvested from each 21-day-old culture in an equal volume of hyamine hydroxide solution. Before solubilization, cells were washed three times with 50 ml of distilled water to remove adsorbed dyes. Ecolite 10 ml was added to the mixture, which was vortexed vigorously. To increase counting efficiency, the solution of biomass-hyamine-scintillation cocktail was further diluted 10 to 20 times with fresh Ecolite before counting.

P. chrysosporium = experiment: as above; type: cell-based, Phanerochaete chrysosporium
Procedure: as §3
Either a charcoal-containing polyurethane sponge (Bio-Rad Laboratories, Richmond, Calif.) or 2-methoxyethanol was used to trap volatile organic compounds released during mineralization experiments. The sponge (1 cm^3) replaced the 1N NaOH solution in the small glass cap attached to the rubber stopper; other conditions were as before for the ^14 CO2 experiments. For scintillation counting, the charcoal sponges were dissolved in 1 ml of hyamine hydroxide contained in scintillation vials (1M solution in methanol; NEN Research Products, Boston, Mass.) held at 55° C. for 2 h. Ten ml of Ecolite scintillation cocktail were then added and the cpm was measured.
In the second procedure, cultures with CO2 traps were flushed with oxygen for 10 min, and the organic volatiles present were trapped in 10 ml of 2-methoxyethanol mixed with 10 ml Ecolite.
as §4

[7] = beginning concentration 100 ppm
[8] = beginning concentration 150 ppm
[9] = beginning concentration 200 ppm
[10] = beginning concentration 300 ppm

COc1ccc(CO)cc1OC [Veratryl alcohol, 3,4-dimethoxy benzyl alcohol, reference compound]
Maximal rate of VA oxidation by ligninase ([1]; absorption change per-min-per-ml of ligninase solution, 310 nm): about 159 AU

O=S(=O)(O)c1ccc(N=Nc2ccc(O)c(Cl)c2)cc1 [compound 13]
Oxidation rate of azo dyes, Horseradish peroxidase [2]: 0.10 μmoles per minute per ml | Oxidation rate of azo dyes, S. chromofuscus peroxidase [3]: 0.13 μmoles per minute per ml | Oxidation rate of azo dyes, P. chrysosporium Mn-peroxidase (Mn(II)-peroxidase): 0.26 μmoles per minute per ml | Oxidation rate of azo dyes, P. chrysosporium Ligninase (ligninase): 0.88 μmoles per minute per ml | Degradation (%) after Streptomyces cultivation, strain A11 (S. chromofuscus A11): 5% | Degradation (%) after Streptomyces cultivation, strain A13 (S. diastaticus A13): 1% | Degradation (%) after Streptomyces cultivation, strain A12 (S. diastaticus A12): 1% | Degradation (%) after Streptomyces cultivation, strain A10 (S. rochei A10): 2% | Concentration of substrate after ten days cultivation with P. chrysosporium [4, 7]: 7.734 ppm | Concentration of substrate after ten days cultivation with P. chrysosporium [4, 8]: 20.776 ppm | Concentration of substrate after ten days cultivation with P. chrysosporium [4, 9]: 28.216 ppm | Concentration of substrate after ten days cultivation with P. chrysosporium [4, 10]: 20.096 ppm | % Decolorization, P. chrysosporium ([4]; initial concn 150 ppm): 92% | % Decolorization, P. chrysosporium ([4]; initial concn 300 ppm): 88%

CCN(CC)c1ccc(N=Nc2ccc(S(=O)(=O)O)cc2)cc1 [compound 15]
Oxidation rate of azo dyes, Horseradish peroxidase [2]: 0.12 μmoles per minute per ml | Oxidation rate of azo dyes, S. chromofuscus peroxidase [3]: 0.17 μmoles per minute per ml | Oxidation rate of azo dyes, P. chrysosporium Mn-peroxidase (Mn(II)-peroxidase): 0.23 μmoles per minute per ml | Oxidation rate of azo dyes, P. chrysosporium Ligninase (ligninase): 0.75 μmoles per minute per ml | Degradation (%) after Streptomyces cultivation, strain A11 (S. chromofuscus A11): 3% | Degradation (%) after Streptomyces cultivation, strain A13 (S. diastaticus A13): 1% | Degradation (%) after Streptomyces cultivation, strain A12 (S. diastaticus A12): 1% | Degradation (%) after Streptomyces cultivation, strain A10 (S. rochei A10): 2% | Concentration of substrate after ten days cultivation with P. chrysosporium [4, 7]: 1.901 ppm | Concentration of substrate after ten days cultivation with P. chrysosporium [4, 8]: 10.589 ppm | Concentration of substrate after ten days cultivation with P. chrysosporium [4, 9]: 17.931 ppm | Concentration of substrate after ten days cultivation with P. chrysosporium [4, 10]: 17.791 ppm | % Decolorization, P. chrysosporium ([4]; initial concn 150 ppm): 38% | % Decolorization, P. chrysosporium ([4]; initial concn 300 ppm): 27%

O=S(=O)(O)c1ccc(N=Nc2ccc(N=Nc3c(O)ccc4ccccc34)c(S(=O)(=O)O)c2)cc1 [compound 24]
Oxidation by ligninase after VA was added [1]: total decolorization | Oxidation by ligninase without VA [1]: limited extent | Dye remaining in the cultures, HPLC [5]: 4.43 mg-per-liter | Dye remaining in the cultures, Spectrophotometry [5]: 1.11 mg-per-liter | Bleaching of cultures [5]: completely bleached

O=C(O)c1nn(-c2ccc(S(=O)(=O)O)cc2)c(O)c1N=Nc1ccc(S(=O)(=O)O)cc1 [compound 28]
Oxidation by ligninase after VA was added [1]: total decolorization | Oxidation by ligninase without VA [1]: limited extent | Dye remaining in the cultures, HPLC [5]: 3.00 mg-per-liter | Dye remaining in the cultures, Spectrophotometry [5]: 2.42 mg-per-liter | Bleaching of cultures [5]: completely bleached

Nc1ccc(N=N[14c]2[14cH][14cH][14c](S(=O)(=O)O)[14cH][14cH]2)cc1S(=O)(=O)O [compound 33]
Dye mineralized by soil microflora (soil microflora): 1.1% | Dye transformed by soil microflora (soil microflora): 3.4%

COc1cc(N=N[14c]2[14cH][14cH][14c](S(=O)(=O)O)[14cH][14cH]2)ccc1O [compound 34]
Dye mineralized by soil microflora (soil microflora): 14% | Dye transformed by soil microflora (soil microflora): 46% | Mineralization by the streptomycetes ([6]; 21-day incubation): mineralized | Radioactivity accounted for by dye absorbed by the cells ([6]; 21 days growth of S. chromofuscus): 9% | Percentage of radioactivity recovered in CO2, Streptomyces chromofuscus ([6]; 21 days' growth, 50 mg/liter): ~4% | Percentage of radioactivity recovered in biomass (cells), Streptomyces chromofuscus ([6]; 21 days' growth, 50 mg/liter): 4.6% | Percentage of radioactivity recovered in CO2, P. chrysosporium (P. chrysosporium; 21 days' growth, 200 mg/liter): 25.7% | Percentage of radioactivity recovered in biomass (cells), P. chrysosporium (P. chrysosporium; 21 days' growth, 200 mg/liter): 5.2% | Percentage of radioactivity removed from the medium, P. chrysosporium (P. chrysosporium; 21 days' growth, 200 mg/liter): 31.7% | Mineralization rate relative to dyes 33 and 35 (P. chrysosporium; first 10 days of incubation): twice as fast
